Drawing on PubChem BioAssay AID1053159 (Broad Institute, 2014), this text covers relative PCSK9 expression for one compound.

The test system of the experiment is HepG2 PCSK9 mRNA qRT-PCR, time course 0.5-28 h. The experiment is described as follows: PCSK9 mRNA reduction over time, late-stage follow-up, mechanism study for Trib1 inducer project, cell-based, HepG2, RT-PCR, time course (AID 1053159). The following applies: dose 2.5; stronger effect = lower value.

For the compound `CN1C(=O)c2cc(NC(=O)c3ccc(C(F)(F)F)cc3)ccc2OC[C@@H]2O[C@H](CC(=O)NC3Cc4ccccc4C3)CC[C@@H]21`, the relative PCSK9 expression is 19%.
